Assay results from patent US20240051985A1, “METTL3 MODULATORS” (ACCENT THERAPEUTICS, INC., priority 2020, published 2024).

Assays:
[1] = molecular target: PRMT5-MEP50 (Homo sapiens, UniProt O14744); experiment: PRMT5 assay (3H-SAM flashplate); conditions: PRMT5 biochemical assay
Experimental: Assays were performed in a 25 μl-volume in 384-well V-bottom polypropylene microplates (Greiner Bio-One, cat. No. 781280) at ambient temperature. Optimized 1× assay buffer was 20 mM Tris-HCl pH 8.0, 1 mM DTT, […]. For compound screening PRMT5-MEP50 (final concentration, f.c.=2.5 nM) was added using a Multidrop Combi (ThermoFisher Scientific, Waltham, MA) and preincubated for 5 min. Reactions were started by adding 3′ biotinylated histone H4 peptide acetylated on serine 1 (Ac-[…]-Biotin) (f.c.=100 nM) and 3H-SAM (f.c.=250 nM) substrates. Reactions proceeded for 60 minutes and were quenched with excess non-radioactive SAM (f.c.=15 μM). The reactions were then transferred to streptavidin-coated flashplates and incubated for 2 hours at 25° C. Following two washing cycles with 0.1% Tween-20, the plates were sealed and read on a TopCount (PerkinElmer, Waltham, MA) plate-based scintillation counter. For determination of kinetic parameters, reaction times were optimized so that measurements were taken during the initial velocity phase of the reaction.

[2] = molecular target: METTL3/METTL14 (Homo sapiens, UniProt Q86U44); experiment: METTL3-14 standard enzyme assay (3H-SAM flashplate); conditions: METTL3 biochemical assay
Experimental: METTL3-14 Standard Enzyme Assay
Assays were performed in a 25 μl-volume in 384-well V-bottom polypropylene microplates (Greiner Bio-One, cat. No. 781280) at ambient temperature. Optimized 1× assay buffer was 20 mM HEPES pH 7.5, 50 mM KCl, 250 μM MgCl2, 1 mM DTT, 0.01% Tween, 0.01% BSG, 0.004 U/μl RNAseOUT (cat. No. 10777019, ThermoFisher Scientific, Waltham, MA). For compound screening METTL3/METTL14 (final concentration, f.c.=2.5 nM) was added using a Multidrop Combi (ThermoFisher Scientific, Waltham, MA) and preincubated for 5 min. Reactions were started by adding 3′ biotinylated RNA (UCUGGACUAAA-biotin) (f.c.=100 nM) and 3H-SAM (f.c.=100 nM) substrates. Reactions proceeded for 30 minutes and were quenched with excess non-radioactive SAM (f.c.=15 μM). The reactions were then transferred to streptavidin-coated flashplates and incubated for 2 hours at 25° C. Following two washing cycles with 0.1% Tween-20, the plates were sealed and read on a TopCount (PerkinElmer, Waltham, MA) plate-based scintillation counter. For determination of kinetic parameters, reaction times were optimized so that measurements were taken during the initial velocity phase of the reaction.

Chain of METTL3/METTL14 (Q86U44 whole entry, species assumed): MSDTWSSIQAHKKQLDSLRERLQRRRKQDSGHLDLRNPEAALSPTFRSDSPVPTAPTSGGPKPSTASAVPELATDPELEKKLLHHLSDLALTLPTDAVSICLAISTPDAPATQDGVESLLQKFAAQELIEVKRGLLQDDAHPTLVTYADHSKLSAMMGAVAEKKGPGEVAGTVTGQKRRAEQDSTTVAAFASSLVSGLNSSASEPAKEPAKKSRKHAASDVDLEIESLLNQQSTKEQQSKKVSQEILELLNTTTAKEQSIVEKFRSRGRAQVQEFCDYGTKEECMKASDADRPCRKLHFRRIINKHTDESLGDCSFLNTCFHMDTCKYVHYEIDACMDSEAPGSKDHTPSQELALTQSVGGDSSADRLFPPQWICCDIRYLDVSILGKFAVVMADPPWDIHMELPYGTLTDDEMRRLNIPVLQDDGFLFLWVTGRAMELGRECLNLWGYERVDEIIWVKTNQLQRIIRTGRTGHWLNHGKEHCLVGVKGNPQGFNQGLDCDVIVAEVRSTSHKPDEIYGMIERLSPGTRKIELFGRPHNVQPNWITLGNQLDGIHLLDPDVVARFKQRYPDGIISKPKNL
Chain of METTL3/METTL14 (Q9HCE5 whole entry partner, species assumed): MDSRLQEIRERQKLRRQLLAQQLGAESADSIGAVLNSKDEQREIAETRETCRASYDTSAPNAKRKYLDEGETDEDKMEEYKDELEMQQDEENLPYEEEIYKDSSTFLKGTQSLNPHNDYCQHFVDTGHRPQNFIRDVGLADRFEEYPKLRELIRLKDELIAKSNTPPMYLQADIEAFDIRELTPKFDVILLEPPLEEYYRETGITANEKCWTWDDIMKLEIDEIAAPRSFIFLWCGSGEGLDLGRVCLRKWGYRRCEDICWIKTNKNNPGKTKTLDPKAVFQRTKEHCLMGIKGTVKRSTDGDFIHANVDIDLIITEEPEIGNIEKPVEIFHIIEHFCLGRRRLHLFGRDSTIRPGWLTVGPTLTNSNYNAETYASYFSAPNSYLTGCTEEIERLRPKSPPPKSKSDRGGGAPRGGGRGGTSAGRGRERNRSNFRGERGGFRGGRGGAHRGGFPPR
Chain of PRMT5-MEP50 (O14744 whole entry): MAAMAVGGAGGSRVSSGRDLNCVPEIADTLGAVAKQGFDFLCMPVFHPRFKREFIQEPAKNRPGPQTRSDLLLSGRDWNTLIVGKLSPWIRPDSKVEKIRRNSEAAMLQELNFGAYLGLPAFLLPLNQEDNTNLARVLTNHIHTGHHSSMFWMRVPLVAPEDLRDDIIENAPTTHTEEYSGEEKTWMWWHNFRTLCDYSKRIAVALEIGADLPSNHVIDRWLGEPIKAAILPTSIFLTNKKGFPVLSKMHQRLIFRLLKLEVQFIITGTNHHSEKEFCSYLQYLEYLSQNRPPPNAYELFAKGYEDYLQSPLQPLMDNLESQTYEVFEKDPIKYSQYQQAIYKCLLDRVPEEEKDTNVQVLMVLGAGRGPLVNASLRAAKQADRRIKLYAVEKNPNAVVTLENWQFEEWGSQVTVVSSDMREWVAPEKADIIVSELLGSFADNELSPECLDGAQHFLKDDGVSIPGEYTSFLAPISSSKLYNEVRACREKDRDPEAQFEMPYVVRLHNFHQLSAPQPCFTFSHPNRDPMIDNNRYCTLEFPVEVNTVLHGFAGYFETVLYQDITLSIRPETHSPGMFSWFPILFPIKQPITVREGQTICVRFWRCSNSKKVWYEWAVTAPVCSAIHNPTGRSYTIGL
Chain of PRMT5-MEP50 (Q9BQA1 whole entry partner): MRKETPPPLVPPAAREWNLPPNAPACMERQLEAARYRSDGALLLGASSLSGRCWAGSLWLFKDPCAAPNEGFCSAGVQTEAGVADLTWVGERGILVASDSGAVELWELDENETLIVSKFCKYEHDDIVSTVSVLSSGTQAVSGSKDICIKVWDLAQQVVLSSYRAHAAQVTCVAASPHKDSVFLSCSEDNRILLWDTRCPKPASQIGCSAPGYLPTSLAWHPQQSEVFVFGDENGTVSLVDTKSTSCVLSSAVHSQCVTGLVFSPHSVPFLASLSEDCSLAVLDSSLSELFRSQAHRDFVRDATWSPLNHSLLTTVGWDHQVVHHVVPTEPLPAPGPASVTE

| IC50 ([1]; Table 3) [nM] | IC50 ([2]; Table 3) [nM] | IC50 ([1]; Table 4) [nM] | IC50 ([2]; Table 4) [nM] | Compound |
| --- | --- | --- | --- | --- |
| 10 to 100 | 100 to 1000 |  |  | Cn1ccc(-c2cn([C@@H]3O[C@H](C(=O)NCC4CCN(CCO)CC4)[C@@H](O)[C@H]3O)c3ncnc(N)c23)n1 [Compound I-19] |
| ≥ 1000 | 100 to 1000 |  |  | Cn1ccc(-c2cn([C@@H]3O[C@H](C(=O)NCC4CCOCC4)[C@@H](O)[C@H]3O)c3ncnc(N)c23)n1 [Compound I-21] |
| 100 to 1000 | 100 to 1000 |  |  | Cn1ccc(-c2cn([C@@H]3O[C@H](C(=O)NCC4CCC(F)(F)CC4)[C@@H](O)[C@H]3O)c3ncnc(N)c23)n1 [Compound I-22] |
| 100 to 1000 | ≥ 1000 |  |  | Cn1ccc(-c2cn([C@@H]3O[C@H](C(=O)NCC4CCN(CC(F)F)CC4)[C@@H](O)[C@H]3O)c3ncnc(N)c23)n1 [Compound I-23] |
| 10 to 100 | 100 to 1000 |  |  | CN1CCC(CNC(=O)[C@H]2O[C@@H](n3cc(-c4ccn(C)n4)c4c(N)ncnc43)[C@H](O)[C@@H]2O)CC1 [Compound I-24] |
| 10 to 100 | 100 to 1000 |  |  | CN1CCC(NC(=O)[C@H]2O[C@@H](n3cc(-c4ccn(C)n4)c4c(N)ncnc43)[C@H](O)[C@@H]2O)CC1 [Compound I-25] |
| 100 to 1000 | ≥ 1000 |  |  | CN1CCC(NC(=O)[C@H]2O[C@@H](n3ccc4c(N)ncnc43)[C@H](O)[C@@H]2O)CC1 [Compound I-27] |
|  |  | ≥ 1000 | ≥ 1000 | Cn1ccc(-c2cn([C@@H]3O[C@H](C(=O)NC4CCN(CCN)CC4)[C@@H](O)[C@H]3O)c3ncnc(N)c23)n1 [Compound I-41, (2S,3S,4R,5R)-5-[4-amino-5-(1-methyl-1H-pyrazol-3-yl)-7H-pyrrolo[2,3-d]pyrimidin-7-yl]-N-[1-(2-aminoethyl)piperidin-4-yl]-3,4-dihydroxyoxolane-2-carboxamide] |
|  |  | 10 to 100 | ≥ 1000 | CN1CCC(N(CC2CN(C)C2)C(=O)[C@H]2O[C@@H](n3cc(-c4ccn(C)n4)c4c(N)ncnc43)[C@H](O)[C@@H]2O)CC1 [Compound I-47] |

Further lines, the compound ahead of its results:

| Compound | IC50 ([1]; Table 3) [nM] | IC50 ([2]; Table 3) [nM] | IC50 ([1]; Table 4) [nM] | IC50 ([2]; Table 4) [nM] |
| --- | --- | --- | --- | --- |
| Cn1ccc(-c2cn([C@@H]3O[C@H](C(=O)NCc4cnccn4)[C@@H](O)[C@H]3O)c3ncnc(N)c23)n1 [Compound I-20] | ≥ 1000 | 100 to 1000 |  |  |
| Cn1ccc(-c2cn([C@@H]3O[C@H](C(=O)NCc4ccccc4)[C@@H](O)[C@H]3O)c3ncnc(N)c23)n1 [Compound I-26] | ≥ 1000 | 100 to 1000 |  |  |
| Nc1ncnc2c1ccn2[C@@H]1O[C@H](C(=O)NCC2CCN(CC(F)F)CC2)[C@@H](O)[C@H]1O [Compound I-28] | ≥ 1000 | ≥ 1000 |  |  |
| CCNc1ccnc(NC(=O)[C@H]2O[C@@H](n3cc(-n4cccn4)c4c(N)ncnc43)C[C@@H]2O)c1 [Compound I-29] | ≥ 1000 | 100 to 1000 |  |  |
| Nc1ncnc2c1c(-n1cccn1)cn2[C@H]1C[C@H](O)[C@@H](C(=O)Nc2ccc3nc(NC4CCC4)[nH]c3c2)O1 [Compound I-30] | 100 to 1000 | < 10 |  |  |
| CNc1ccc2ccc(N(CC[C@H](N)C(=O)O)C(=O)[C@H]3O[C@@H](n4cc(-c5ccn(C)n5)c5c(N)ncnc54)[C@H](O)[C@@H]3O)cc2n1 [Compound I-38, (2S)-2-amino-4-{1-[(2S,3S,4R,5R)-5-[4-amino-5-(1-methyl-1H-pyrazol-3-yl)-7H-pyrrolo[2,3-d]pyrimidin-7-yl]-3,4-dihydroxyoxolan-2-yl]-N-[2-(methylamino)quinolin-7-yl]formamido}butanoic acid] |  |  | 100 to 1000 | < 10 |
| Cn1ccc(-c2cn([C@@H]3O[C@H](C(=O)N(CC[C@H](N)C(=O)O)c4ccc5nc(N)[nH]c5c4)[C@@H](O)[C@H]3O)c3ncnc(N)c23)n1 [Compound I-39, (2S)-2-amino-4-[N-(2-amino-1H-1,3-benzodiazol-6-yl)-1-[(2S,3S,4R,5R)-5-[4-amino-5-(1-methyl-1H-pyrazol-3-yl)-7H-pyrrolo[2,3-d]pyrimidin-7-yl]-3,4-dihydroxyoxolan-2-yl]formamido]butanoic acid] |  |  | ≥ 1000 | 100 to 1000 |
| CN1CCC(N(CCCc2nn[nH]n2)C(=O)[C@H]2O[C@@H](n3cc(-c4ccn(C)n4)c4c(N)ncnc43)[C@H](O)[C@@H]2O)CC1 [Compound I-48] |  |  | 10 to 100 | ≥ 1000 |
